Source: US20230391768A2, “IMIDAZOPYRIDINE DERIVATIVES AND AZA-IMIDAZOPYRIDINE DERIVATIVES AS JANUS KINASE 2 INHIBITORS AND USES THEREOF” (Dana-Farber Cancer Institute, Inc., priority 2018, published 2023)

What was measured:
Test in all cases: KINOMEscan
Type in all cases: binding
CAMK1D = CAMK1D (Homo sapiens (Human), UniProt Q8IU85); details: read-out: percent of control
Description: (§1) In vitro profiling of Compound I-2 (1 μM) was performed using the DiscoveRx KINOMEscan® platform.

GRK1 = GRK1 (Homo sapiens (Human), UniProt Q15835); details: read-out: percent of control
Description: as §1

GRK3 = GRK3 (Homo sapiens (Human), UniProt P35626); details: read-out: percent of control
Description: as §1

PCTK1 = PCTK1 (Homo sapiens (Human), UniProt Q00536); details: read-out: percent of control
Description: as §1

CSF1R-autoinhibited = CSF1R-autoinhibited (Homo sapiens (Human), UniProt P07333); details: read-out: percent of control
Description: as §1

FER = FER (Homo sapiens (Human), UniProt P16591); details: read-out: percent of control
Description: as §1

PIM2 = PIM2 (Homo sapiens (Human), UniProt Q9P1W9); details: read-out: percent of control
Description: as §1

PIM3 = PIM3 (Homo sapiens (Human), UniProt Q86V86); details: read-out: percent of control
Description: as §1

ASK2 = ASK2 (Homo sapiens (Human), UniProt O95382); details: read-out: percent of control
Description: as §1

EIF2AK1 = EIF2AK1 (Homo sapiens (Human), UniProt Q9BQI3); details: read-out: percent of control
Description: as §1

YES = YES (Homo sapiens (Human), UniProt P07947); details: read-out: percent of control
Description: as §1

ERK2 = ERK2 (Homo sapiens (Human), UniProt P28482); details: read-out: percent of control
Description: as §1

PKN2 = PKN2 (Homo sapiens (Human), UniProt Q16513); details: read-out: percent of control
Description: as §1

MUSK = MUSK (Homo sapiens (Human), UniProt O15146); details: read-out: percent of control
Description: as §1

IKK-epsilon = IKK-epsilon (Homo sapiens (Human), UniProt Q14164); details: read-out: percent of control
Description: as §1

LZK = LZK (Homo sapiens (Human), UniProt O43283); details: read-out: percent of control
Description: as §1

LOK = LOK (Homo sapiens (Human), UniProt O94804); details: read-out: percent of control
Description: as §1

MEK6 = MEK6 (Homo sapiens (Human), UniProt P52564); details: read-out: percent of control
Description: as §1

AURKB = AURKB (Homo sapiens (Human), UniProt Q96GD4); details: read-out: percent of control
Description: as §1

CDC2L5 = CDC2L5 (Homo sapiens (Human), UniProt Q14004); details: read-out: percent of control
Description: as §1

CLK2 = CLK2 (Homo sapiens (Human), UniProt P49760); details: read-out: percent of control
Description: as §1

BIKE = BIKE (Homo sapiens (Human), UniProt Q9NSY1); details: read-out: percent of control
Description: as §1

PFTK1 = PFTK1 (Homo sapiens (Human), UniProt O94921); details: read-out: percent of control
Description: as §1

CSNK2A1 = CSNK2A1 (Homo sapiens (Human), UniProt P68400); details: read-out: percent of control
Description: as §1

EGFR(T790M) = EGFR(T790M) (Homo sapiens (Human), UniProt P00533, T790M); details: read-out: percent of control
Description: as §1

PRP4 = PRP4 (Homo sapiens (Human), UniProt Q13523); details: read-out: percent of control
Description: as §1

FLT3 (R834Q) = FLT3 (R834Q) (Homo sapiens (Human), UniProt P36888, R834Q); details: read-out: percent of control
Description: as §1

CDK2 = CDK2 (Homo sapiens (Human), UniProt P24941); details: read-out: percent of control
Description: as §1

SRC = SRC (Homo sapiens (Human), UniProt P12931); details: read-out: percent of control
Description: as §1

CDK7 = CDK7 (Homo sapiens (Human), UniProt P50613); details: read-out: percent of control
Description: as §1

FLT3 (ITD) = details: 1 μM
Description: as §1

MKK7 = MKK7 (Homo sapiens (Human), UniProt O14733); details: read-out: percent of control
Description: as §1

GRK4 = GRK4 (Homo sapiens (Human), UniProt P32298); details: read-out: percent of control
Description: as §1

HCK = HCK (Homo sapiens (Human), UniProt P08631); details: read-out: percent of control
Description: as §1

[1] = molecular target: RSK3 (Kin.Dom.1-N-terminal) (Homo sapiens (Human), UniProt Q15349); details: read-out: percent of control
Description: as §1

WNK2 = WNK2 (Homo sapiens (Human), UniProt Q9Y3S1); details: read-out: percent of control
Description: as §1

[2] = molecular target: ABL1(F317L)-nonphosphorylated (Homo sapiens (Human), UniProt P00519, F317L); details: read-out: percent of control
Description: as §1

MYO3A = MYO3A (Homo sapiens (Human), UniProt Q8NEV4); details: read-out: percent of control
Description: as §1

EGFR(E746-A750del) = EGFR(E746-A750del) (Homo sapiens (Human), UniProt P00533, DEL746-750); details: read-out: percent of control
Description: as §1

CSF1R-autoinhibited, sequence (P07333 539-972 limits assumed): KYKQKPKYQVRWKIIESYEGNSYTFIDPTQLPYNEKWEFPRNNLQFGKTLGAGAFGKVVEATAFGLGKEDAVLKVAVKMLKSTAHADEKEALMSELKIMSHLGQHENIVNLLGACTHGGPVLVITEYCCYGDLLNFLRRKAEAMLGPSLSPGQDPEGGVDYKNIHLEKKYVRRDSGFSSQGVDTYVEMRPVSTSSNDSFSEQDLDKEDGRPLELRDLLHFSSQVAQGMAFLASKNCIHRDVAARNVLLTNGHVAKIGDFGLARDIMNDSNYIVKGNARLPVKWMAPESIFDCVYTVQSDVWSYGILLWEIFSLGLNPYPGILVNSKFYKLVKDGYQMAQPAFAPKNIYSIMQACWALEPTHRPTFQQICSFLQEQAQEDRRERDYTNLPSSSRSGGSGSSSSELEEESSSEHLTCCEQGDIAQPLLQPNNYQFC
PKN2, sequence (Q16513 whole entry): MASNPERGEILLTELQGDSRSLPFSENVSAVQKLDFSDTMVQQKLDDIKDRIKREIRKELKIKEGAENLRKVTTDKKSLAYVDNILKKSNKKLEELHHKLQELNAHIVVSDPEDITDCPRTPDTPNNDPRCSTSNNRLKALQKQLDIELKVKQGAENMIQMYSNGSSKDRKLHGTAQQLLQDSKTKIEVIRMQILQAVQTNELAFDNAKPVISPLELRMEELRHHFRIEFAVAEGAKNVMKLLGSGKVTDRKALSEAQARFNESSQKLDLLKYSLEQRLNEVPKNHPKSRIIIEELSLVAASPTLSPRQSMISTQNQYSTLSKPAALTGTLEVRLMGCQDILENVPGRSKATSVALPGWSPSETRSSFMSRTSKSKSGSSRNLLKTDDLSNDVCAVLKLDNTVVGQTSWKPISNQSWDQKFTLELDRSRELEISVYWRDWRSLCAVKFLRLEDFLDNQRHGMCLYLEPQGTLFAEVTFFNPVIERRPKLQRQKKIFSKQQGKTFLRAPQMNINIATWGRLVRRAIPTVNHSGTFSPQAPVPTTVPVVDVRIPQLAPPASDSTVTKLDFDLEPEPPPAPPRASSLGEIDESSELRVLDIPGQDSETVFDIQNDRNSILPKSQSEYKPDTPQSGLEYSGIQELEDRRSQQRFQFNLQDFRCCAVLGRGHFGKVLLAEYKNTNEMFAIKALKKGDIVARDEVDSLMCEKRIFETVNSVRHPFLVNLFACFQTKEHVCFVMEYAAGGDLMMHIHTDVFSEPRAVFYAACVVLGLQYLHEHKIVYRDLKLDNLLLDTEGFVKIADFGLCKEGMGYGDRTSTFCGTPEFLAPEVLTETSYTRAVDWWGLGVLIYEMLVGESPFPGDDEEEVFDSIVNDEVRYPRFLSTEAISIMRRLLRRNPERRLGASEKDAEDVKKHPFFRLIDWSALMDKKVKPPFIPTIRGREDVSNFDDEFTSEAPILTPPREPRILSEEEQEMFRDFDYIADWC
EGFR(T790M), sequence (P00533 25-1210 T790M): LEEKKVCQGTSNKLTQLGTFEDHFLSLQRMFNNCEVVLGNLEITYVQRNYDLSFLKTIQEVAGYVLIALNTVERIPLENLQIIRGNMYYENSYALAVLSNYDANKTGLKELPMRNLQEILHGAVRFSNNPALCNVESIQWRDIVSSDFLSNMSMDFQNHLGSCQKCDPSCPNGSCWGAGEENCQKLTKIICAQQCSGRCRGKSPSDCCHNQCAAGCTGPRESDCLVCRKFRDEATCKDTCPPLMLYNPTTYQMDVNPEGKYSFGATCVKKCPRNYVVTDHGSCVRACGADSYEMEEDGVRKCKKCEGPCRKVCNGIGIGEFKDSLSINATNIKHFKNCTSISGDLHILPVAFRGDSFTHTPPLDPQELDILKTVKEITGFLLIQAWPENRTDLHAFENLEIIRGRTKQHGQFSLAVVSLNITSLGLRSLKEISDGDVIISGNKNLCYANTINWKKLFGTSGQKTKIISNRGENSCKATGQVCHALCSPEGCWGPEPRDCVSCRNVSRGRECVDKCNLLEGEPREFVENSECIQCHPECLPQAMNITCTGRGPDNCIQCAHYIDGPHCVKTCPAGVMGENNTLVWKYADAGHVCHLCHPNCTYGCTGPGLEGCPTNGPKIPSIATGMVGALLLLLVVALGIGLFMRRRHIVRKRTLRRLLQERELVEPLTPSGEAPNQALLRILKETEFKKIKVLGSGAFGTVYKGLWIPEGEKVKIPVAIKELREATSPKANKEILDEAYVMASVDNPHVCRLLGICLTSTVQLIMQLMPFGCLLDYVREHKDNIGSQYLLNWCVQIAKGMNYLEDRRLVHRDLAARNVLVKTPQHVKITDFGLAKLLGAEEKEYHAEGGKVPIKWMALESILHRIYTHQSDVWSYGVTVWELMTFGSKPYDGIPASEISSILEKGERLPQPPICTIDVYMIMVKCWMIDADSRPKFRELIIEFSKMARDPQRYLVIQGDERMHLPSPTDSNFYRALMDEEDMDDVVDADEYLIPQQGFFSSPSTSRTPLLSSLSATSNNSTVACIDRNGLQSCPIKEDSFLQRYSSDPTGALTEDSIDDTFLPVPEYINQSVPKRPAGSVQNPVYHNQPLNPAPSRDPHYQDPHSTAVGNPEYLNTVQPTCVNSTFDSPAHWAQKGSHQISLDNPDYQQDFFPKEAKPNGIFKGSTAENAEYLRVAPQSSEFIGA
MKK7, sequence (O14733 whole entry): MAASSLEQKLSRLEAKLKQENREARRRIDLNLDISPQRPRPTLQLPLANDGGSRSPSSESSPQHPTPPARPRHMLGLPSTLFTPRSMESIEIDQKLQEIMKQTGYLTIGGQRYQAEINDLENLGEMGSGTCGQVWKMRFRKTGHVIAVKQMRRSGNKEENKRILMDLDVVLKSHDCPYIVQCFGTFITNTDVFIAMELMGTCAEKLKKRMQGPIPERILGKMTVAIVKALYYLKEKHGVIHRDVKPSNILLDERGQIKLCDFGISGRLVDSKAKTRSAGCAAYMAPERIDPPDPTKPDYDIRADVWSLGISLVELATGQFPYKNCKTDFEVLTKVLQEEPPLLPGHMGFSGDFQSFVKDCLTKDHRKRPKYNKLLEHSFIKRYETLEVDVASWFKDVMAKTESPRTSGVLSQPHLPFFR
CDC2L5, sequence (Q14004 whole entry, looked up): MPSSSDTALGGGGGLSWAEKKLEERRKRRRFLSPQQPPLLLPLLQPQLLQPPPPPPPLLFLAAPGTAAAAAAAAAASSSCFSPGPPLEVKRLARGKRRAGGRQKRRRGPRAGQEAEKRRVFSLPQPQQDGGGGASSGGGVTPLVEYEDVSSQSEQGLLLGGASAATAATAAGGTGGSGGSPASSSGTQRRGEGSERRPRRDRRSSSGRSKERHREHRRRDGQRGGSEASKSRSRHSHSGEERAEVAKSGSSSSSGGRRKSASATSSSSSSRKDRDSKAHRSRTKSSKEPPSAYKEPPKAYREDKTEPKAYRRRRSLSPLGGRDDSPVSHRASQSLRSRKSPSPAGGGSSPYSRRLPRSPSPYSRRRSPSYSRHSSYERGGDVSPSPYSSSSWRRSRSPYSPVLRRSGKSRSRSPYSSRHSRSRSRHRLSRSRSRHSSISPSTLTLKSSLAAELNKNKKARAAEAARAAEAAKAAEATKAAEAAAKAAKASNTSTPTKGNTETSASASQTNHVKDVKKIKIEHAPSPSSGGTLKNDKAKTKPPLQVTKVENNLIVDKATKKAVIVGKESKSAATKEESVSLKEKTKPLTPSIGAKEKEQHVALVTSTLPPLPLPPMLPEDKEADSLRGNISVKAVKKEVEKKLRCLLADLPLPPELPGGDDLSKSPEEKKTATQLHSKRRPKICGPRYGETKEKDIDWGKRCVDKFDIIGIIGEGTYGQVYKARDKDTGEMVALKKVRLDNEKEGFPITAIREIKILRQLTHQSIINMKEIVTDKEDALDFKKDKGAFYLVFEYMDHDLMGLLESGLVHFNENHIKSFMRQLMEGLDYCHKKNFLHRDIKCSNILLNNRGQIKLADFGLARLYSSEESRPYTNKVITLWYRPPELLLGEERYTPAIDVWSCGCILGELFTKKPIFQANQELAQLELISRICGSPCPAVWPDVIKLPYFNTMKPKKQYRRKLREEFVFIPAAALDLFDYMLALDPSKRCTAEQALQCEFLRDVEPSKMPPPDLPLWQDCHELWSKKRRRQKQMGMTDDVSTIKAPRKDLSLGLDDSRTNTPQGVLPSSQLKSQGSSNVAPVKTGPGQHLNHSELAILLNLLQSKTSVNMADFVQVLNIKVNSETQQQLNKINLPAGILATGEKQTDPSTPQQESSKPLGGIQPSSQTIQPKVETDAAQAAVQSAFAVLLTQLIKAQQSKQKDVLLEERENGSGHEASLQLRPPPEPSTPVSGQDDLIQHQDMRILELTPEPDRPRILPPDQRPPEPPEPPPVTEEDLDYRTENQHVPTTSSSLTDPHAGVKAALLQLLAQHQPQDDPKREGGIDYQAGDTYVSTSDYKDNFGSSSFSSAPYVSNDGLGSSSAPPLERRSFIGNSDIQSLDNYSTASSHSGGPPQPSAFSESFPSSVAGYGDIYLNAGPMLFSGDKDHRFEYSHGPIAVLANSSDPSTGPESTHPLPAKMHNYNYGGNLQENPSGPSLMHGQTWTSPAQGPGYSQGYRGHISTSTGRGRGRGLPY
CDK7, sequence (P50613 whole entry): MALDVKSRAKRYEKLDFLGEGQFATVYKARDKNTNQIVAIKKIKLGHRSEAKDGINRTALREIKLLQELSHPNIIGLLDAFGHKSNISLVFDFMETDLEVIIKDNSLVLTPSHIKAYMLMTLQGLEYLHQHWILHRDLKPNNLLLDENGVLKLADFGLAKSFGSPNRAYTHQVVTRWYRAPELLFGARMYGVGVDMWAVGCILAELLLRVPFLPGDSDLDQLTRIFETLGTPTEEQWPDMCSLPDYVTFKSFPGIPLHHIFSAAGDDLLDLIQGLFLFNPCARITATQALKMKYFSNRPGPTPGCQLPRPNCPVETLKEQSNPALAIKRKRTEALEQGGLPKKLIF

| Compound | remaining binding at 1 µM (CAMK1D) [%] | remaining binding at 1 µM (GRK1) [%] | remaining binding at 1 µM (GRK3) [%] | remaining binding at 1 µM (PCTK1) [%] | remaining binding at 1 µM (CSF1R-autoinhibited) [%] | remaining binding at 1 µM (FER) [%] | remaining binding at 1 µM (PIM2) [%] | remaining binding at 1 µM (PIM3) [%] | remaining binding at 1 µM (ASK2) [%] | remaining binding at 1 µM (EIF2AK1) [%] | remaining binding at 1 µM (YES) [%] | remaining binding at 1 µM (ERK2) [%] | remaining binding at 1 µM (PKN2) [%] | remaining binding at 1 µM (MUSK) [%] | remaining binding at 1 µM (IKK-epsilon) [%] | remaining binding at 1 µM (LZK) [%] | remaining binding at 1 µM (LOK) [%] | remaining binding at 1 µM (MEK6) [%] | remaining binding at 1 µM (AURKB) [%] | remaining binding at 1 µM (CDC2L5) [%] | other results |
| --- | --- | --- | --- | --- | --- | --- | --- | --- | --- | --- | --- | --- | --- | --- | --- | --- | --- | --- | --- | --- | --- |
| CCN1CCN(Cc2cc(NC(=O)c3ccc(C)c(-c4ccc5nc(NC(=O)C6CC6)cn5n4)c3)cc(C(F)(F)F)c2)CC1 [Compound I-2, 3-(2-(cyclopropanecarboxamido)imidazo[1,2-b]pyridazin-6-yl)-N-(3-((4-ethylpiperazin-1-yl)methyl)-5-(trifluoromethyl)phenyl)-4-methylbenzamide] | 97 | 91 | 87 | 16 | 25 | 29 | 96 | 90 | 99 | 100 | 4.7 | 100 | 77 | 0.6 | 80 | 48 | 0 | 94 | 97 | 0.3 | remaining binding at 1 µM (CLK2): 48%; remaining binding at 1 µM (BIKE): 96%; remaining binding at 1 µM (PFTK1): 0.35%; remaining binding at 1 µM (CSNK2A1): 98%; remaining binding at 1 µM (EGFR(T790M)): 15%; remaining binding at 1 µM (PRP4): 87%; remaining binding at 1 µM (FLT3 (R834Q)): 1.5%; remaining binding at 1 µM (CDK2): 7%; remaining binding at 1 µM (SRC): 0%; remaining binding at 1 µM (CDK7): 0.55%; percent of control (FLT3 (ITD)): 1.6%; remaining binding at 1 µM (MKK7): 84%; remaining binding at 1 µM (GRK4): 81%; remaining binding at 1 µM (HCK): 0%; remaining binding at 1 µM [1]: 100%; remaining binding at 1 µM (WNK2): 72%; remaining binding at 1 µM [2]: 0%; remaining binding at 1 µM (MYO3A): 85%; remaining binding at 1 µM (EGFR(E746-A750del)): 29% |
| CCN1CCN(Cc2cc(NC(=O)c3ccc(C)c(-c4ccc5nc(NC(=O)C6CC6)cn5c4)c3)cc(C(F)(F)F)c2)CC1 [Compound I-6, 3-(2-(cyclopropanecarboxamido)imidazo[1,2-a]pyridin-6-yl)-N-(3-((4-ethylpiperazin-1-yl)methyl)-5-(trifluoromethyl)phenyl)-4-methylbenzamide] | 93 | 93 | 90 | 28 | 49 | 6 | 97 | 89 | 64 | 92 | 1.6 | 100 | 100 | 2.1 | 87 | 100 | 0 | 95 | 80 | 0.75 | remaining binding at 1 µM (CLK2): 100%; remaining binding at 1 µM (BIKE): 100%; remaining binding at 1 µM (PFTK1): 2.4%; remaining binding at 1 µM (CSNK2A1): 100%; remaining binding at 1 µM (EGFR(T790M)): 15%; remaining binding at 1 µM (PRP4): 100%; remaining binding at 1 µM (FLT3 (R834Q)): 2.1%; remaining binding at 1 µM (CDK2): 60%; remaining binding at 1 µM (SRC): 0%; remaining binding at 1 µM (CDK7): 1%; percent of control (FLT3 (ITD)): 1.4%; remaining binding at 1 µM (MKK7): 100%; remaining binding at 1 µM (GRK4): 98%; remaining binding at 1 µM (HCK): 0.05%; remaining binding at 1 µM [1]: 95%; remaining binding at 1 µM (WNK2): 57%; remaining binding at 1 µM [2]: 0%; remaining binding at 1 µM (MYO3A): 66%; remaining binding at 1 µM (EGFR(E746-A750del)): 25% |
